Literature values as cited in patent US6951654B2, “Intravaginal drug delivery devices for the administration of an antimicrobial agent” (Galen (Chemicals) Limited, priority 2001, dated 2005).

Conditions: at 20° C.; Merck Index

- solubility in water: 1 g per 100 ml
SMILES: Cc1ncc([N+](=O)[O-])n1CCO [metronidazole, 2-methyl-5-nitro-1H-imidazole-1-ethanol]
